# Data from US12233129B2, “Methods and compositions for the treatment of cancer” (priority 2019, dated 2025).
# “Also recorded” adds a separate entry of the source. Read-outs that look alike come from different tables or passages of the source.
# Experiments:
# UBXN2A = test: Western blot of UBXN2A protein in treated HCT-116 cells; format: cell-based, human; conditions: VTD 20 and 40 μM, 24 hours
# Procedure: Our in vivo results encouraged us to screen for compounds that can enhance expression of UBXN2A. Using the UBXN2A promoter upstream of a luciferase construct that was transiently transfected to HCT-116 cells, we performed a high-throughput drug screen with 1800 FDA approved drugs, synthetic compounds, and natural products. Forty-eight hours after transfection, cells were treated with compounds for 24 hours in triplicate (FIG. 16A). […] We looked at protein expression of UBXN2A as well as P47 (another member of the UBXD family) to confirm the selectivity of VH as a selective enhancer of UBXN2A protein in cells. […] We observed a different level of VH-dependent UBXN2A induction in different segments of the gastrointestinal system (esophagus to rectum; data not shown).
# The alkaloid fraction of Veratrine is known to contain a mixture of two major alkaloid esters: Veratridine (VTD) and Cevadine. VTD, with a veratroyl group at the 3-OR1 position and a free hydroxyl group at the 15-O-R2 position can function as an antihypertensive plant-derived substance. […]
# A cell-based screen was conducted in search of compounds that induce the expression of the UBXN2A gene. […] A glow luciferase activity assay was conducted in triplicate followed by semi-quantitative RT-PCR and WB analysis for UBXN2A, p47 (negative control), or GAPDH± Veratrine or its purified form VTD. […]
# HCT-116 = system: HCT-116
# Procedure: (§1) Besides the cell viability assay, we decided to measure the apoptotic activity in the above combination therapy.
# (§2) Cells were treated with 5-FU (5-100 μM) and etoposide (1-50 μM) along with VTD (30 and 100 μM respectively) in two different set of experiments for 24 hours.
# (§3) An MTT (3[4, 5-dimethylthiazol-2-yl]-2, 5-diphenyltetrazolium bromide) assay was performed to measure the viability of cells. Briefly, cells were seeded at a density of 10×10^3 cells per well in phenol-red free growth media. After 24 hours, cells were treated with various concentrations of VTD±5-FU or etoposide. After incubation, an MTT dye was added to the cells for 2-4 hours. The absorbance of samples was measured at 630 nm using an EXL808 absorption spectrophotometer (Biotek, Winooski). The viability of cells was calculated as % of control. Cell detachment and clonogenic survival assays were conducted as previously described. Early apoptosis, caspase-3, cleaved PARP and Sytox Red (Life Technology, NY, USA) were measured by the Accuri C6 flow cytometer system (BD Pharmingen, MD, USA).[54]
# (§4) (A-H) (A-C) HCT-116 and (D-F) LoVo were treated with VTD (10-300 μM) for 24, 48, and 72 hours. A suboptimal dose of Etoposide (ETO) ([…]) was added to cells for the last 24 hours only. The viability of cells was determined as % of control (untreated cells) using an MTT assay. […] (G-H) HCT-116 (G) and LoVo (H) cells were treated with VTD (10-200 μM) and a suboptimal dose of ETO (5 μM) for 24 hours. Cells were then stained with Annexin V apoptotic marker. […] (I-L) HCT-116 and LoVo cells were treated with different doses of 5-FU (5-100 μM, I-J) and ETO (1-50 μM, K-L) along with VTD (30 μM and 100 μM respectively) for 24 hours.
# LoVo = system: LoVo
# Procedure: as §1, §2, §3, §4
# [1] = 5-FU 5-100 μM along with VTD 100 μM, 24 hours
# [2] = VTD 10-300 μM 24, 48, 72 hours plus suboptimal etoposide 5 μM for the last 24 hours
# [3] = etoposide 1-50 μM along with VTD 30 μM, 24 hours
# [4] = higher concentrations of VTD with etoposide 5 μM
# [5] = low doses of VTD with etoposide, antagonistic
smiles,measurement,setting,value
"COc1ccc(C(=O)O[C@H]2CC[C@@]3(C)[C@@H]4CC[C@H]5[C@]6(O)C[C@H](O)[C@@]7(O)[C@@H](CN8C[C@@H](C)CC[C@H]8[C@@]7(C)O)[C@]6(O)C[C@@]53O[C@]24O)cc1OC [VTD, Veratridine]",UBXN2A protein expression (WB),UBXN2A,induces UBXN2A expression in a dose-dependent manner; also recorded: increases UBXN2A protein levels in a dose-dependent manner
same,combination index (CI),HCT-116; 5-FU 75 μM combined with 100 μM VTD,0.165
same,combination index (CI),HCT-116; 5-FU 100 μM combined with 100 μM VTD,0.109
same,"cell viability (MTT), 5-FU effect enhanced by VTD",HCT-116; [1],significantly enhanced the 5-FU and etoposide effects on cell viability
same,combination index (CI),HCT-116; VTD 30 μM with etoposide 5 μM,0.516
same,"cell viability (MTT), combination",HCT-116; [2],significantly potentiates the cytotoxic effect of VTD
same,"cell viability (MTT), etoposide effect enhanced by VTD",HCT-116; [3],significantly enhanced the 5-FU and etoposide effects on cell viability
same,combination index (CI),HCT-116; [4],≤ 0.4
same,combination index (CI),HCT-116; [5],> 1
same,combination index (CI),LoVo; 5-FU 5 μM with 100 μM VTD,0.32
same,"cell viability (MTT), 5-FU effect enhanced by VTD",LoVo; [1],significantly enhanced the 5-FU and etoposide effects on cell viability
same,"cell viability (MTT), combination",LoVo; [2],significantly potentiates the cytotoxic effect of VTD
same,combination index (CI),LoVo; etoposide 1 μM with 30 μM VTD,0.275
same,VTD concentration at which VTD and etoposide start to act synergistically,LoVo; etoposide 5 μM,100 µM
same,"cell viability (MTT), etoposide effect enhanced by VTD",LoVo; [3],significantly enhanced the 5-FU and etoposide effects on cell viability
same,combination index (CI),LoVo; [4],≤ 0.4
same,combination index (CI),LoVo; [5],> 1
